In patent publication US8815879B2, “Substituted 4-(selenophen-2(or-3)-ylamino)pyrimidine compounds and methods of use thereof” (Kasina Laila Innova Pharmaceuticals Private Limited, priority 2010, dated 2014):
Structures can show the parent of a compound that is named as a salt. Where two headings read alike, the source gives them in different places.

Tests used:
[1] = system: human colorectal carcinoma HT29 cells; test: MTT based cell proliferation assay, HT29; details: for IC50: read-out: Cell Proliferation Inhibition in HT29 (Colon carcinoma), IC50; for inhibition at 10 µg/mL: read-out: Cell Proliferation Inhibition in HT29 (Colon carcinoma), % at highest screening dose
Method: (§1) MTT [3-(4,5-dimethylthiazol-2-yl)-2,5-diphenyltetrazolium bromide] incorporation based cell proliferation assay was performed using standard procedure. […] The assay was carried out according to the instructions provided by the vendor. […] Vehicle control culture wells received only a maximum of 0.5% DMSO. Thereafter, 0.5 mg/ml of MTT reagent was added to each well and the microplate was incubated further for 4 h at 37° C. in presence of 5% CO2. Finally, the cells were solubilized by adding solubilizing solution and allowed to incubate at 37° C. overnight. After complete solubilization of the formazan crystals the absorbance was read at 540 nm in a microplate reader (BioRad, USA).
(§2) The evaluation of cell proliferation inhibitory activities of the compounds was done in two phases—(1) Screening, and (2) half-maximal inhibitory concentration (IC50) determination. In the screening phase, the cells were treated with three different concentrations e.g. 1, 5 and 10 μg/ml.

[2] = system: human prostate DU145 cells; test: MTT based cell proliferation assay, DU145; details: for IC50: read-out: Cell Proliferation Inhibition in DU145 (Prostate carcinoma), IC50; for inhibition at 10 µg/mL: read-out: Cell Proliferation Inhibition in DU145 (Prostate carcinoma), % at highest screening dose
Method: as §1, §2

[3] = system: human lung carcinoma A549 cells; test: MTT based cell proliferation assay, A549; details: for IC50 / inhibition at 10 µg/mL: Homo sapiens, A549, 72 h; for IC50: read-out: Cell Proliferation Inhibition in A549 (Lung carcinoma), IC50; for inhibition at 10 µg/mL: read-out: Cell Proliferation Inhibition in A549 (Lung carcinoma), % at highest screening dose
Method: as §1, §2

Compound | inhibition at 10 µg/mL ([2]; Homo sapiens, DU-145, 72 h) [%] | inhibition at 10 µg/mL [3] [%] | inhibition at 10 µg/mL ([1]; Homo sapiens, HT-29, 72 h) [%] | further results
COc1cc2ncnc(Nc3cc(C(C)(C)C)[se]c3C(N)=O)c2cc1OCCCN1CCOCC1 (as salt: HCl) [Compound 3, 3-(6-(3-morpholinopropoxy)-7-methoxyquinazolin-4-ylamino)-5-tert-butylselenophene-2-carboxamide] |  |  |  | melting point: 262 to 264 °C
COc1cc2ncnc(Nc3cc(C(C)(C)C)[se]c3[N+](=O)[O-])c2cc1OCCCN1CCOCC1 (as salt: HCl) [Compound 4, [5-(tert-butyl)-2-nitroselenophen-3-yl][7-methoxy-6-(3-morpholino-propoxy)quinazolin-4-yl]amine] |  |  |  | melting point: 240 to 242 °C
COc1cc2c(Nc3cc(C(C)(C)C)[se]c3C(N)=O)ncnc2cc1OCCCN1CCOCC1 (as salt: HCl) [Compound 5, 3-(7-(3-morpholinopropoxy)-6-methoxyquinazolin-4-ylamino)-5-tert-butylselenophene-2-carboxamide] |  |  |  | melting point: 262 to 264 °C
COCCOc1cc2ncnc(Nc3cc(C(C)(C)C)[se]c3C(N)=O)c2cc1OCCOC (as salt: HCl) [Compound 6, 3-(6,7-bis(2-methoxyethoxy)quinazolin-4-ylamino)-5-tert-butylselenophene-2-carboxamide] |  |  |  | melting point: 224 to 226 °C
COc1cc2ncnc(Nc3cc(-c4ccccc4)[se]c3C(N)=O)c2cc1OCCCN1CCOCC1 (as salt: HCl) [Compound 7, 3-(6-(3-morpholinopropoxy)-7-methoxyquinazolin-4-ylamino)-5-phenyl-selenophene-2-carboxamide] |  |  |  | melting point: 266 to 270 °C
CC(C)(C)c1cc(Nc2ncnc3ccc(N)cc23)c(C(N)=O)[se]1 (as salt: HCl) [Compound 8, 3-(6-aminoquinazolin-4-ylamino)-5-tert-butylselenophene-2-carboxamide] |  |  |  | melting point: 170 to 172 °C
CC(C)(C)c1cc(Nc2ncnc3ccc(NC(=O)CCl)cc23)c(C(N)=O)[se]1 (as salt: HCl) [Compound 9, 3-(6-(2-chloroacetamido)quinazolin-4-ylamino)-5-tert-butylselenophene-2-carboxamide] |  |  |  | melting point: 276 to 278 °C
COC(=O)c1cc(Nc2ncnc3cc(OC)c(OCCCN4CCOCC4)cc23)c(C)[se]1 (as salt: HCl) [Compound 10, methyl 4-(6-(3-morpholinopropoxy)-7-methoxyquinazolin-4-ylamino)-5-methylselenophene-2-carboxylate] |  |  |  | melting point: 198 to 200 °C
COc1cc2c(Nc3cc(C(C)(C)C)[se]c3C(N)=O)ncnc2c(OC)c1OC [Compound 2, 3-(6,7,8-trimethoxyquinazolin-4-ylamino)-5-tert-butylselenophene-2-carboxamide] |  |  |  | IC50 ([1]; Homo sapiens, HT-29, 72 h): 19.3 µM; IC50 ([2]; Homo sapiens, DU-145, 72 h): 5.98 µM; IC50 [3]: 31.1 µM
COc1cc2ncnc(Nc3cc(C(C)(C)C)[se]c3C(N)=O)c2cc1OCCCN1CCOCC1 [Compound 3, 3-(6-(3-morpholinopropoxy)-7-methoxyquinazolin-4-ylamino)-5-tert-butylselenophene-2-carboxamide] |  |  |  | IC50 ([1]; Homo sapiens, HT-29, 72 h): 5.12 µM; IC50 ([2]; Homo sapiens, DU-145, 72 h): 7.39 µM; IC50 [3]: 6.71 µM
COc1cc2ncnc(Nc3cc(C(C)(C)C)[se]c3[N+](=O)[O-])c2cc1OCCCN1CCOCC1 [Compound 4, [5-(tert-butyl)-2-nitroselenophen-3-yl][7-methoxy-6-(3-morpholino-propoxy)quinazolin-4-yl]amine] | 9.85 | 10.4 |  | IC50 ([1]; Homo sapiens, HT-29, 72 h): 19.3 µM
COc1cc2c(Nc3cc(C(C)(C)C)[se]c3C(N)=O)ncnc2cc1OCCCN1CCOCC1 [Compound 5, 3-(7-(3-morpholinopropoxy)-6-methoxyquinazolin-4-ylamino)-5-tert-butylselenophene-2-carboxamide] |  |  |  | IC50 ([1]; Homo sapiens, HT-29, 72 h): 4.07 µM; potency in vitro compared to gefitinib (Iressa), HT29 ([1]; ratio of IC50 values): several times better potency; IC50 ([2]; Homo sapiens, DU-145, 72 h): 3.9 µM; potency in vitro compared to gefitinib (Iressa), DU145 ([2]; ratio of IC50 values): several times better potency; IC50 [3]: 4.6 µM; potency in vitro compared to gefitinib (Iressa), A549 ([3]; ratio of IC50 values): approximately four times
COCCOc1cc2ncnc(Nc3cc(C(C)(C)C)[se]c3C(N)=O)c2cc1OCCOC [Compound 6, 3-(6,7-bis(2-methoxyethoxy)quinazolin-4-ylamino)-5-tert-butylselenophene-2-carboxamide] | 39.7 | 5.09 | 86.4 | 
COc1cc2ncnc(Nc3cc(-c4ccccc4)[se]c3C(N)=O)c2cc1OCCCN1CCOCC1 [Compound 7, 3-(6-(3-morpholinopropoxy)-7-methoxyquinazolin-4-ylamino)-5-phenyl-selenophene-2-carboxamide] |  |  | 85.8 | IC50 ([2]; Homo sapiens, DU-145, 72 h): 5.84 µM; IC50 [3]: 6.08 µM
CC(C)(C)c1cc(Nc2ncnc3ccc(N)cc23)c(C(N)=O)[se]1 [Compound 8, 3-(6-aminoquinazolin-4-ylamino)-5-tert-butylselenophene-2-carboxamide] | 15.7 | 7.6 | 81.9 | 
CC(C)(C)c1cc(Nc2ncnc3ccc(NC(=O)CCl)cc23)c(C(N)=O)[se]1 [Compound 9, 3-(6-(2-chloroacetamido)quinazolin-4-ylamino)-5-tert-butylselenophene-2-carboxamide] |  | 0.19 |  | IC50 ([1]; Homo sapiens, HT-29, 72 h): 9.24 µM; IC50 ([2]; Homo sapiens, DU-145, 72 h): 8.51 µM
COC(=O)c1cc(Nc2ncnc3cc(OC)c(OCCCN4CCOCC4)cc23)c(C)[se]1 [Compound 10, methyl 4-(6-(3-morpholinopropoxy)-7-methoxyquinazolin-4-ylamino)-5-methylselenophene-2-carboxylate] | 21.4 | 10.3 | 6.11 | 
COc1cc2ncnc(Nc3cc(C(N)=O)[se]c3C)c2cc1OCCCN1CCOCC1 [Compound 11, 4-(6-(3-morpholinopropoxy)-7-methoxyquinazolin-4-ylamino)-5-methylselenophene-2-carboxamide] | 5.15 | 16 | 7.41 | 
CC(C)(C)c1cc(Nc2ncnc3ncccc23)c(C(N)=O)[se]1 [Compound 12, 5-tert-butyl-3-(pyridino[2,3-d]pyrimidin-4-ylamino)selenophene-2-carboxamide] | 9.18 | 7 | 6.75 | 
CCc1c(C)sc2ncnc(Nc3cc(C(C)(C)C)[se]c3C(N)=O)c12 [Compound 13, 3-(5-ethyl-6-methylthiopheno[2,3-d]pyrimidin-4-ylamino)-5-tert-butylselenophene-2-carboxamide] | 8.49 | 5.68 | 30.2 | 
CC(C)(C)c1cc(Nc2ncnc3cc(C(C)(C)C)[se]c23)c(C(N)=O)[se]1 [Compound 18, 3-(6-tert-butylselenopheno[3,2-d]pyrimidin-4-ylamino)-5-tert-butylselenophene-2-carboxamide] | 7.87 | 2.18 | 36.4 | 
CCc1c(C)[se]c2ncnc(Nc3cc(C(C)(C)C)[se]c3C(N)=O)c12 [Compound 19, 3-(5-ethyl-6-methylselenopheno[2,3-d]pyrimidin-4-ylamino)-5-tert-butylselenophene-2-carboxamide] | 6.68 | 7.86 | 43.9 | 
CSc1nc2ncnc(Nc3cc(C(C)(C)C)[se]c3C(N)=O)c2s1 [Compound 20, 3-(2-(methylthio)thiazolo[4,5-d]pyrimidin-7-ylamino)-5-tert-butylseleno-phene-2-carboxamide] |  |  |  | IC50 ([1]; MTT, three days incubation): 9.54 µM; IC50 ([2]; MTT, three days incubation): 17.9 µM; Cell Proliferation Inhibition in A549 (Lung carcinoma), % at highest screening dose ([3]; at 10 μg/ml (highest dose tested in screening), micromolar equivalent printed in each cell, three days): 1.28% at 23.42 μM
COc1cc2ncnc(N(C)c3cc(C(C)(C)C)[se]c3C(N)=O)c2cc1OCCCN1CCOCC1 [Compound 22, 3-(N-(6-(3-morpholinopropoxy)-7-methoxyquinazolin-4-yl)-N-methylamino)-5-tert-butylselenophene-2-carboxamide] | 14.7 | 3.93 | 34.3 | 
COc1cc2ncnc(N(CCCl)c3cc(C(C)(C)C)[se]c3C(N)=O)c2cc1OCCCN1CCOCC1 [Compound 23, 3-(N-(6-(3-morpholinopropoxy)-7-methoxyquinazolin-4-yl)-N-(2-chloroethyl)amino)-5-tert-butylselenophene-2-carboxamide] | 22.4 | 3.28 | 40.7 | 
COc1cc2nc(C)nc(Nc3cc(C(C)(C)C)[se]c3C(N)=O)c2cc1OC [Compound 24, 3-(6,7-dimethoxy-2-methylquinazolin-4-ylamino)-5-tert-butylselenophene-2-carboxamide] | 87.7 | 15.1 |  | IC50 ([1]; Homo sapiens, HT-29, 72 h): 10.6 µM
COC(=O)c1cc(Nc2nc(C)nc3cc(OC)c(OC)cc23)c(C)[se]1 [Compound 25, methyl 4-(6,7-dimethoxy-2-methylquinazolin-4-ylamino)-5-methylselenophene-2-carboxylate] | 2.59 | 2.95 | 11.8 | 
COc1cc2nc(C)nc(Nc3cc(C(C)(C)C)[se]c3C(N)=O)c2cc1OCCCN1CCOCC1 [Compound 26, 3-(6-(3-morpholinopropoxy)-7-methoxy-2-methylquinazolin-4-ylamino)-5-tert-butylselenophene-2-carboxamide] |  |  |  | IC50 ([1]; Homo sapiens, HT-29, 72 h): 4.28 µM; IC50 ([2]; Homo sapiens, DU-145, 72 h): 6.78 µM; IC50 [3]: 11.7 µM
